Tests used:
[1] = tested on: TSE cells; experiment: 6-day cell proliferation assay, TSE; assay type: cell-based, human
Method: Human breast cancer cell lines MCF7, BT-474, T-47D, MDA-MB-453, MDA-MB-231, Hs 578T, HCC38, SK-BR-3, and DU4475 were purchased from the American Type Culture Collection (ATCC) and no additional cell authentication was performed. The TSE human breast cancer cell line was supplied by Dr. Steven Abcouwer (University of Michigan). All breast cancer cells were cultured at 37° C. under a 5% CO2 atmosphere in RPMI 1640 medium containing 2 mM glutamine (Gibco) and supplemented with 10% fetal bovine serum (FBS) (Gibco). The 293T cell line (ATCC) used for generating lentivirus particles was cultured as above but using DMEM, high glucose (Gibco).
Culture medium was added to 12-well plates (1 ml/well) and wells were seeded with cells at Day 0 as follows. MCF7, T-47D, BT-474, HCC38 cells: […] cells/well. MDA-MB-453 and MDA-MB-231 cells: 1×10^4 cells/well. TSE and Hs 578T cells: 0.3×10^4 cells/well. After 16 hours, culture medium was replaced with fresh medium supplemented with appropriate concentrations of inhibitors and was subsequently replaced every 48 hours. On Day 6 cells were trypsinized and suspended in an appropriate volume of culture medium, and the total number of cells per well was determined using a hemocytometer or a TC20 Automated Cell Counter (Bio-Rad).

[2] = tested on: glutamine-mediated TCA cycle anaplerosis in breast cancer cells; experiment: [U-13C]-glutamine labeling and metabolite analysis; assay type: cell-based, human
Method: The procedures for metabolite extraction from cultured cells are described in previous studies (Cluntun et al., “The Rate of Glycolysis Quantitatively Mediates Specific Histone Acetylation Sites,” Cancer Metab. 3:10 (2015); Liu et al., “A Strategy for Sensitive, Large Scale Quantitative Metabolomics,” J. Vis. Exp. e51358-e51358 (2014), which are hereby incorporated by reference in their entirety). Briefly, adherent cells were grown in 6-well plates in biological triplicate to 80% confluence, medium was rapidly aspirated and cells were washed with cold PBS on ice. Then, 1 ml of extraction solvent (80% methanol/water) cooled to −80° C. was added to each well, and the dishes were transferred to −80° C. for 15 min. Cells were then scraped into the extraction solvent on dry ice. All metabolite extracts were centrifuged at 20,000×g at 4° C. for 10 min. Finally, the solvent in each sample was evaporated in a Speed Vacuum. The cell extracts were dissolved in 15 μl water and 15 μl methanol/acetonitrile (1:1 v/v) (LC-MS optima grade, Thermo Fisher Scientific). Samples were centrifuged at 20,000×g for 10 min at 4° C. and the supernatants were transferred to Liquid Chromatography (LC) vials. The injection volume for polar metabolite analysis was 8 μl.
Cells were grown to 80% confluence in 6-well plates with standard culture medium and washed with sterile PBS. Then, culture medium in which glutamine was replaced by [^13C5]-L-glutamine (Cambridge Isotope Laboratories), supplemented with dialyzed FBS (Gibco) and appropriate concentrations of inhibitors was added (1.5 ml/well). At the appropriate time-point, metabolites were extracted as described above.
A hydrophilic interaction liquid chromatography method (HILIC) with an Xbridge amide column (100×2.1 mm, 3.5 μm) (Waters) was employed on a Dionex (Ultimate 3000 UHPLC) for compound separation and detection at room temperature. The mobile phase A was 20 mM ammonium acetate and 15 mM ammonium hydroxide in water with 3% acetonitrile, pH 9.0, and the mobile phase B was acetonitrile. The linear gradient was as follows: 0 min, 85% B; 1.5 min, 85% B, 5.5 min, 35% B; 10 min, 35% B, 10.5 min, 35% B, 14.5 min, 35% B, 15 min, 85% B, and 20 min, 85% B. The flow rate was 0.15 ml/min from 0 to 10 min and 15 to 20 min, and 0.3 ml/min from 10.5 to 14.5 min. All solvents were LCMS grade and purchased from Thermo Fisher Scientific.
The Q Exactive MS (Thermo Scientific) is equipped with a heated electrospray ionization probe (HESI), and the relevant parameters are as listed: evaporation temperature, 120° C.; sheath gas, 30; auxiliary gas, 10; sweep gas, 3; spray voltage, 3.6 kV for positive mode and 2.5 kV for negative mode. Capillary temperature was set at 320° C., and S-lens was 55. A full scan range from 60 to 900 (m/z) was used. The resolution was set at 70,000. The maximum injection time was 200 ms. Automated gain control (AGC) was targeted at 3,000,000 ions.
Raw data collected from LC-Q Exactive MS were processed on Sieve 2.0 (Thermo Scientific) and ToxID 2.0 (Thermo Scientific). Peak alignment and detection were performed according to the protocol described by Thermo Scientific. For targeted metabolite analysis, the method ‘peak alignment and frame extraction’ was applied. An input file of theoretical m/z and detected retention time of 204 known metabolites was used for targeted metabolites analysis with data collected in positive mode, while a separate input file of 278 metabolites was used for negative mode. M/Z width was set at 10 ppm. The output file including detected m/z and relative intensity in different samples was obtained after data processing. The quantity of the metabolite fraction analyzed was adjusted to the corresponding protein concentration and cell count upon processing a parallel 6-well plate. Quantitation and statistics were calculated and visualized with Microsoft Excel, MORPHEUS and MetaboAnalyst online software.

[3] = TSE (parental), compared with GLS2 clones, 6 days

Row | Compound | EC50 [1, 3] [µM] | EC50 ([1]; TSE, proliferation over 6 days) [µM] | supply of glutamine-derived carbon to glutamate and the TCA cycle ([2]; Hs 578T, 10 μM) | glutamine anaplerosis ([2]; MCF7, 10 μM) | supply of glutamine-derived carbon to glutamate and the TCA cycle ([2]; MDA-MB-231, 10 μM) | glutamine-mediated anaplerosis ([2]; MDA-MB-453, 10 μM) | anaplerosis effect compared between cell lines ([2]; 10 μM, MDA-MB-453 versus MDA-MB-231) | total abundance of TCA cycle intermediates ([2]; MDA-MB-231 and MDA-MB-453, 10 μM, different periods of time) | glutamine-mediated TCA cycle anaplerosis ([2]; basal- and luminal-subtype cells, 10 μM, 10, 24 and 72 hours)
1 | O=C(Cc1ccccc1)Nc1nnc(CCSCCc2nnc(NC(=O)Cc3ccccc3)s2)s1 [BPTES] | 3 | 3.1 | potently inhibited | partially blocked | potently inhibited | no impact | – | – | –
2 | CN(C)c1ccc(C2Nc3ccc4ccccc4c3C3=C2C(=O)CC(C)(C)C3)cc1Br (centres unmarked) [Compound 968] | 4 | 5 | – | – | – | – | more pronounced in MDA-MB-453 cells than MDA-MB-231 cells | decreased | time-dependent inhibition

From patent publication US20250275964A1, “METHODS OF INHIBITING LIVER-TYPE GLUTAMINASE, GLS2” (CORNELL UNIVERSITY, priority 2019, published 2025)
